Reference: US11566057B2, “Long-acting co-agonists of the glucagon and GLP-1 receptors” (Merck Sharp & Dohme Corp., priority 2017, dated 2023)
Like-named read-outs stand apart in the source and are kept apart here. Numbered stars: 1 amine (or outer) side, 2 acyl side, 3 side chain; on linkers, the order of the positions; unused ones are H or OH. Square brackets hold non-standard residues; d marks the D form. Side chains are listed from the residue outwards. Peptide text beside a SMILES is read from it. * marks the point of attachment. C18 diacid = O=C(O)CCCCCCCCCCCCCCCCC(=O)*; C16 diacid = O=C(O)CCCCCCCCCCCCCCC(=O)*; γGlu = O=C(O)[C@H](CCC(=O)[*:2])N[*:1]; Met(O2) = CS(=O)(=O)CC[C@H](N)C(=O)O; AEEA = NCCOCCOCC(=O)O; Aib = CC(C)(N)C(=O)O

Experiments:
[1] = target: T1, human GCGR (Homo sapiens, UniProt P47871); assay: cAMP activity assay at the Glucagon receptor (GCGR); format: cell-based; conditions: for hGCGR/hGLP1R (hTone): ratio of GCGR EC50 to GLP1R EC50
T1 construct: expressed in transfected cells; growth medium holds Blasticidin and Hygromycin
Outline: (§1)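 Peptides serially diluted from DMSO (10 points) and added to frozen-stock cells bearing human GLP1R (10,000 cells/well) or GCGR (30,000 cells/well), 1 h at RT, dark. EC50 by four-parameter logistic fit of HitHunter cAMPXS luminescence, read following overnight RT incubation.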

[2] = target: T2, human GLP1R (Homo sapiens, UniProt P43220); assay: cAMP activity assay at the GLP-1 receptor (GLP1R); format: cell-based; conditions: summary statement: EC50 at each of the glucagon and GLP-1 receptors; read-out: EC50 at the GLP-1 receptor
T2 construct: expressed in transfected cells; growth medium holds Blasticidin and Hygromycin
Outline: as §1

[3] = summary statement: EC50 at each of the glucagon and GLP-1 receptors, read-out: EC50 at the glucagon receptor

T1 sequence (P47871 26-477): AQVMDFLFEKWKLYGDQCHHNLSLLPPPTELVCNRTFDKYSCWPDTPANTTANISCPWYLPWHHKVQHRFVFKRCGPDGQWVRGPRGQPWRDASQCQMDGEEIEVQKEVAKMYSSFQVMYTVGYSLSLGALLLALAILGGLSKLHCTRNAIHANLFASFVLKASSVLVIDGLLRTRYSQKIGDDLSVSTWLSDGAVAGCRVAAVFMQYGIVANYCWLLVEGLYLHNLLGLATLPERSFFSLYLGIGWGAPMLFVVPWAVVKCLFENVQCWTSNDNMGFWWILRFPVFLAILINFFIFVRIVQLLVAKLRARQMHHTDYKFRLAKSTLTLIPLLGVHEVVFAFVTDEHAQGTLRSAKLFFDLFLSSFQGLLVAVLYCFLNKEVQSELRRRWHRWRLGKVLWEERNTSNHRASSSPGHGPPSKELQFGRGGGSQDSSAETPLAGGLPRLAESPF
T2 sequence (P43220 24-463): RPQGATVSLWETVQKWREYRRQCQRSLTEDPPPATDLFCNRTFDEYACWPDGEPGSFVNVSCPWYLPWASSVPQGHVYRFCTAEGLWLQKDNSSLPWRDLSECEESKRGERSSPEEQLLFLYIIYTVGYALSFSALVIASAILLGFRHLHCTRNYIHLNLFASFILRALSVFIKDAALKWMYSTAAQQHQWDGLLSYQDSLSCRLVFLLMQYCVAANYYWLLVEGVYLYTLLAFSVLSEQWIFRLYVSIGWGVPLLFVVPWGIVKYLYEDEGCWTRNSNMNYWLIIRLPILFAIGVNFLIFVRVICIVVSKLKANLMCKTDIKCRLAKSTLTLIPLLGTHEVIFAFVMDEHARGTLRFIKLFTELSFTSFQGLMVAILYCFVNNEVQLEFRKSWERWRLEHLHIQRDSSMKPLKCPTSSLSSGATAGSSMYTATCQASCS

| SMILES | hGCGR/hGLP1R (hTone) [1] | EC50 [1, 3] [nM] | EC50 [2] [nM] | EC50 ([1]; cells expressing human GCGR, cAMP production, buffer with or without 20% human serum (not stated which), read-out: GCGR EC50 human) [nM] |
| --- | --- | --- | --- | --- |
| CC(C)C[C@H](NC(=O)[C@H](Cc1ccc(O)cc1)NC(=O)[C@H](CCCCN)NC(=O)[C@H](CO)NC(=O)[C@H](Cc1ccc(O)cc1)NC(=O)[C@H](CC(=O)O)NC(=O)[C@H](CO)NC(=O)[C@@H](NC(=O)[C@H](Cc1ccccc1)NC(=O)[C@@H](NC(=O)CNC(=O)[C@H](CCC(N)=O)NC(=O)C(C)(C)NC(=O)[C@@H](N)Cc1c[nH]cn1)[C@@H](C)O)[C@@H](C)O)C(=O)N[C@@H](CC(=O)O)C(=O)N[C@@H](C)C(=O)N[C@@H](CCCNC(=N)N)C(=O)N[C@@H](C)C(=O)N[C@@H](C)C(=O)N[C@@H](CCC(N)=O)C(=O)N[C@@H](CCCCNC(=O)COCCOCCNC(=O)COCCOCCNC(=O)CC[C@H](NC(=O)CCCCCCCCCCCCCCC(=O)O)C(=O)O)C(=O)N[C@@H](Cc1ccccc1)C(=O)N[C@H](C(=O)N[C@@H](CCC(N)=O)C(=O)N[C@@H](Cc1c[nH]c2ccccc12)C(=O)N[C@@H](CC(C)C)C(=O)N[C@@H](CCS(C)(=O)=O)C(=O)N[C@@H](CCC(=O)O)C(=O)N[C@H](C(N)=O)[C@@H](C)O)C(C)C [TP825] (H-H[Aib]QGTFTSDYSKYLDARAAQK([AEEA-AEEA-γGlu-C16 diacid])FVQWL[Met(O2)]ET-NH2; N-terminus assumed) | 2.0 | < 5 | < 5 | – |
| CC(C)C[C@H](NC(=O)[C@H](Cc1ccc(O)cc1)NC(=O)[C@H](CCCCN)NC(=O)[C@H](CO)NC(=O)[C@H](Cc1ccc(O)cc1)NC(=O)[C@H](CC(=O)O)NC(=O)[C@H](CO)NC(=O)[C@@H](NC(=O)[C@H](Cc1ccccc1)NC(=O)[C@@H](NC(=O)CNC(=O)[C@H](CCC(N)=O)NC(=O)C(C)(C)NC(=O)[C@@H](N)Cc1c[nH]cn1)[C@@H](C)O)[C@@H](C)O)C(=O)N[C@@H](CC(=O)O)C(=O)N[C@@H](C)C(=O)N[C@@H](CCCNC(=N)N)C(=O)N[C@@H](C)C(=O)N[C@@H](C)C(=O)N[C@@H](CCCCNC(=O)COCCOCCNC(=O)COCCOCCNC(=O)CC[C@H](NC(=O)CCCCCCCCCCCCCCCCC(=O)O)C(=O)O)C(=O)N[C@@H](CC(=O)O)C(=O)N[C@@H](Cc1ccccc1)C(=O)N[C@H](C(=O)N[C@@H](CCC(N)=O)C(=O)N[C@@H](Cc1c[nH]c2ccccc12)C(=O)N[C@@H](CC(C)C)C(=O)N[C@@H](CCS(C)(=O)=O)C(=O)N[C@@H](CC(=O)O)C(=O)N[C@H](C(=O)O)[C@@H](C)O)C(C)C [TP736] (H-H[Aib]QGTFTSDYSKYLDARAAK([AEEA-AEEA-γGlu-C18 diacid])DFVQWL[Met(O2)]DT-OH) | 2.8 | < 5 | < 5 | – |
| CC(C)C[C@H](NC(=O)[C@H](Cc1ccc(O)cc1)NC(=O)[C@H](CCCCN)NC(=O)[C@H](CO)NC(=O)[C@H](Cc1ccc(O)cc1)NC(=O)[C@H](CC(=O)O)NC(=O)[C@H](CO)NC(=O)[C@@H](NC(=O)[C@H](Cc1ccccc1)NC(=O)[C@@H](NC(=O)CNC(=O)[C@H](CCC(N)=O)NC(=O)C(C)(C)NC(=O)[C@@H](N)Cc1c[nH]cn1)[C@@H](C)O)[C@@H](C)O)C(=O)N[C@@H](CC(=O)O)C(=O)N[C@@H](C)C(=O)N[C@@H](CCCNC(=N)N)C(=O)N[C@@H](C)C(=O)N[C@@H](C)C(=O)N[C@@H](CCC(N)=O)C(=O)N[C@@H](CCC(=O)O)C(=O)N[C@@H](Cc1ccccc1)C(=O)N[C@H](C(=O)N[C@@H](CCCCNC(=O)COCCOCCNC(=O)COCCOCCNC(=O)CC[C@H](NC(=O)CCCCCCCCCCCCCCC(=O)O)C(=O)O)C(=O)N[C@@H](Cc1c[nH]c2ccccc12)C(=O)N[C@@H](CC(C)C)C(=O)N[C@@H](CCS(C)(=O)=O)C(=O)N[C@@H](CC(=O)O)C(=O)N[C@H](C(N)=O)[C@@H](C)O)C(C)C [TP813] (H-H[Aib]QGTFTSDYSKYLDARAAQEFVK([AEEA-AEEA-γGlu-C16 diacid])WL[Met(O2)]DT-NH2; N-terminus assumed) | 1.6 | < 5 | < 5 | 0.21 |
